Reference: patent US20260293899A1 (priority 2023, published 2026)

Legend:
Phytophthora infestans = type: in vivo; settings: 200 ppm; tomato leaf disks; preventative, inoculated 1 day after application; assessed 5-7 days after application
Plasmopara viticola = type: in vivo; settings: 200 ppm; grape vine leaf disks; preventative, inoculated 1 day after application; assessed 6-8 days after application
Pythium ultimum = test: Pythium ultimum/Liquid Culture (Seedling Damping Off); type: cell-based; settings: Globisporangium ultimum, read-out: control of Pythium ultimum (inhibition of growth, photometric)

SMILES | control of Phytophthora infestans (percent disease control compared to untreated) (Phytophthora infestans) | control of Plasmopara viticola (percent disease control compared to untreated) (Plasmopara viticola) | inhibition at 20 ppm (Pythium ultimum) [%]
COC(=O)Nc1ccc(-c2cnc3c(C)cc(C(=O)N(Cc4cnn(C)c4)c4ccc(F)c(OC)c4)cn23)cn1 [Compound 1, methyl N-[5-[6-[(4-fluoro-3-methoxy-phenyl)-[(1-methylpyrazol-4-yl)methyl]carbamoyl]-8-methyl-imidazo[1,2-a]pyridin-3-yl]-2-pyridyl]carbamate] | at least 80% | at least 80% | ≥ 80
COC(=O)Nc1ccc(-c2cnc3ccc(C(=O)N(Cc4cnn(C)c4)c4ccc(F)c(OC)c4)cn23)cn1 [Compound 2, methyl N-[5-[6-[(4-fluoro-3-methoxy-phenyl)-[(1-methylpyrazol-4-yl)methyl]carbamoyl]imidazo[1,2-a]pyridin-3-yl]-2-pyridyl]carbamate] | at least 80% | at least 80% | ≥ 80
COC(=O)Nc1ccc(-c2cnc3ccc(C(=O)N(Cc4ccco4)c4ccc(Cl)cc4)cn23)cn1 [Compound 6, methyl N-[5-[6-[(4-chlorophenyl)-(2-furylmethyl)carbamoyl]imidazo[1,2-a]pyridin-3-yl]-2-pyridyl]carbamate] | at least 80% |  | ≥ 80
COC(=O)Nc1ccc(-c2cnc3ccc(C(=O)N(Cc4ccccc4)c4ccc(F)cc4)cn23)cn1 [Compound 7, methyl N-[5-[6-[benzyl-(4-fluorophenyl)carbamoyl]imidazo[1,2-a]pyridin-3-yl]-2-pyridyl]carbamate] |  |  | ≥ 80
COC(=O)Nc1ccc(-c2cnc3ccc(C(=O)N(Cc4cnn(C)c4)c4ccc(F)cc4)cn23)cn1 [Compound 8, methyl N-[5-[6-[(4-fluorophenyl)-[(1-methylpyrazol-4-yl)methyl]carbamoyl]imidazo[1,2-a]pyridin-3-yl]-2-pyridyl]carbamate] | at least 80% | at least 80% | ≥ 80
